Data published in patent US20160318928A1, “TRICYCLIC COMPOUNDS AS ANTICANCER AGENTS” (BRISTOL-MYERS SQUIBB COMPANY, priority 2013, published 2016).

Target: BRD4 (Homo sapiens, UniProt O60885)
Experiment: Time resolved fluorescence resonance energy transfer (TR-FRET) binding assay, BRD4 bromodomain
Details: one of the FRET assays described

Row | SMILES | IC50 [nM]
1 | Cc1nnn(C)c1-c1cnc2c3ccc(S(C)(=N)=O)cc3n([C@H](c3ccccc3)C3CCOCC3)c2c1 (single isomer, unassigned) [Example 371] | < 5
2 | Cc1nnn(C)c1-c1cnc2c3ccc(S(C)(=N)=O)cc3n([C@H](c3ccccc3)C3CCOCC3)c2c1 (single isomer, unassigned) [Example 372] | < 5
3 | COCC(C1CCOCC1)n1c2cc(C(C)(C)O)ccc2c2ncc(-c3c(C)nnn3C)cc21 (single isomer, unassigned) [Example 396] | < 5
4 | COCC(C1CCOCC1)n1c2cc(C(C)(C)O)ccc2c2ncc(-c3c(C)nnn3C)cc21 (single isomer, unassigned) [Example 397] | < 25
5 | [2H]C([2H])([2H])c1nnn(C)c1-c1cnc2c3cc(F)c(C(C)(C)O)cc3n(C(c3ncccc3F)C3CCOCC3)c2c1 (single isomer, unassigned) [Example 459] | < 5
6 | Cc1noc(C)c1-c1cnc2c3ccc(C(C)(C)O)cc3n(C(c3ccccc3)c3ccccc3)c2c1 [Example 3] | < 5
7 | CCCC(CCC)n1c2cc(C(C)(C)O)ccc2c2ncc(-c3c(C)noc3C)cc21 [Example 8] | < 5
8 | Cc1nnn(C)c1-c1cnc2c3ccc(C(C)(C)O)cc3n(C(CCC(F)(F)F)CCC(F)(F)F)c2c1 [Example 56] | < 5
9 | Cc1nnn(C)c1-c1cnc2c3ccc(C(C)(C)O)cc3n([C@H](c3ccc(F)cc3)C3CCOCC3)c2c1 [Example 59] | < 5
10 | Cc1nnn(C)c1-c1cnc2c3ccc(C(C)(C)O)cc3n([C@@H](c3ccc(F)cc3)C3CCOCC3)c2c1 [Example 60] | < 5
11 | CCCC(CCC)n1c2cc(C(C)(C)O)ccc2c2ncc(-c3c(C)nnn3C)cc21 [Example 61] | < 5
12 | Cc1nnn(C)c1-c1cnc2c3ccc(C(C)(C)O)cc3n([C@@H](c3ccc(F)cc3)C3CCOCC3)c2c1 [Example 73] | < 5
13 | Cc1nnn(C)c1-c1cnc2c3ccc(C(C)(C)O)c(F)c3n(C(CCC(F)(F)F)CCC(F)(F)F)c2c1 [Example 74] | < 25
14 | CCCC(CCC)n1c2cc(-c3c(C)nnn3C)cnc2c2ccc(C(C)(C)O)c(F)c21 [Example 75] | < 5
15 | CCCC(CCC)n1c2cc(-c3c(C)noc3C)cnc2c2ccc(C(C)(C)O)c(F)c21 [Example 82] | < 25
16 | Cc1noc(C)c1-c1cnc2c3ccc(C(C)(C)O)c(F)c3n(C(CCC(F)(F)F)CCC(F)(F)F)c2c1 [Example 83] | < 25

Row | SMILES | IC50 [nM]
17 | CCS(=O)(=O)Nc1ccc(S(C)(=O)=O)c2c1c1ncc(-c3c(C)nnn3C)cc1n2[C@H](c1ccccc1)C1CCOCC1 [Example 217] | < 5
18 | Cc1nnn(C)c1-c1cnc2c3c(NS(=O)(=O)C4CC4)ccc(S(C)(=O)=O)c3n(C(c3ccccc3)C3CCOCC3)c2c1 (stereo not shown) [Example 218] | < 5
19 | Cc1nnn(C)c1-c1cnc2c3c(NS(=O)(=O)CC4CC4)ccc(S(C)(=O)=O)c3n([C@H](c3ccccc3)C3CCOCC3)c2c1 [Example 219] | < 5
20 | [2H]C([2H])([2H])c1nnn(C)c1-c1cnc2c3c(NS(=O)(=O)CC)ccc(S(C)(=O)=O)c3n(C(c3ccccc3)C3CCOCC3)c2c1 (stereo not shown) [Example 223] | < 25
21 | [2H]C([2H])([2H])c1nnn(C)c1-c1cnc2c3ccc(S(C)(=O)=O)cc3n(C(c3ccc(F)cc3)C3CCOCC3)c2c1 (stereo not shown) [Example 265] | < 5
22 | [2H]C([2H])([2H])c1nnn(C)c1-c1cnc2c3ccc(C(C)(C)O)cc3n(C(c3ccccc3F)C3CCOCC3)c2c1 (stereo not shown) [Example 266] | < 5
23 | [2H]C([2H])([2H])c1nnn(C)c1-c1cnc2c3c(S(C)(=O)=O)cccc3n(C(c3ccc(F)cc3)C3CCOCC3)c2c1 (stereo not shown) [Example 270] | < 5
24 | [2H]C([2H])([2H])c1nnn(C)c1-c1cnc2c3ccc(C(C)(C)O)c(F)c3n([C@H](c3ccccc3F)C3CCCOC3)c2c1 (stereo partly shown) [Example 272] | < 5
25 | [2H]C([2H])([2H])c1nnn(C)c1-c1cnc2c3c(OC)cc(C(C)(C)O)cc3n(C(c3ccc(F)cc3)C3CCOCC3)c2c1 (stereo not shown) [Example 275] | < 5
26 | COc1cccnc1C(C1CCOCC1)n1c2cc(C(C)(C)O)ccc2c2ncc(-c3c(C)nnn3C)cc21 (stereo not shown) [Example 291] | < 5
27 | Cc1nnn(C)c1-c1cnc2c3ccc(CN(C)C)cc3n([C@H](c3ccccc3)C3CCOCC3)c2c1 [Example 406, {[3-(Dimethyl-1H-1,2,3-triazol-5-yl)-5-[(S)-oxan-4-yl(phenyl)methyl]-5H-pyrido[3,2-b]indol-7-yl]methyl}dimethylamine] | < 5
28 | Cc1nnn(C)c1-c1cnc2c3cc(C(=O)N4CC(F)(F)C4)ccc3n([C@H](c3ccccc3)C3CCOCC3)c2c1 [Example 428, 5-[8-(3,3-Difluoroazetidine-1-carbonyl)-5-[(S)-oxan-4-yl(phenyl)methyl]-5H-pyrido[3,2-b]indol-3-yl]-1,4-dimethyl-1H-1,2,3-triazole] | < 5
29 | Cc1nnn(C)c1-c1cnc2c3cc(C(=O)N4CC(O)C4)ccc3n([C@H](c3ccccc3)C3CCOCC3)c2c1 [Example 429, 1-[3-(Dimethyl-1H-1,2,3-triazol-5-yl)-5-[(S)-oxan-4-yl(phenyl)methyl]-5H-pyrido[3,2-b]indole-8-cabonyl]azetidine-3-ol] | < 5
30 | Cc1nnn(C)c1-c1cnc2c3cc(C(=O)N4CC(F)C4)ccc3n([C@H](c3ccccc3)C3CCOCC3)c2c1 [Example 430, 5-[8-(3-Fluoroazetidine-1-carbonyl)-5-[(S)-oxan-4-yl(phenyl)methyl]-5H-pyrido[3,2-b]indol-3-yl]-1,4-dimethyl-1H-1,2,3-triazole] | < 5
31 | Cc1nnn(C)c1-c1cnc2c3cc(F)c(C(C)(C)O)c(F)c3n([C@H](c3ccccc3)C3CCOCC3)c2c1 [Example 451, 2-[3-(Dimethyl-1H-1,2,3-triazol-5-yl)-6,8-difluoro-5-[(S)-oxan-4-yl(phenyl)methyl]-5H-pyrido[3,2-b]indol-7-yl]propan-2-ol] | < 5
